Laboratory results published in patent US20090123501A1, “INHIBITION OF THE SH2-DOMAIN CONTAINING PROTEIN TYR-PHOSPHATASE, SHP-1, TO ENHANCE VACCINES” (Baylor College of Medicine, priority 2007, published 2009).

Legend:
endogenous SHP-1 protein = test: Knock-down of endogenous SHP-1 protein in D2SC/1 cells, western blot with densitometry; type: cell-based, murine; details: D2SC/1 cells, 40,000 viral particles/cell
Protocol: The high titer adenoviral preparation of SHP-1 specific Ad-shRNA#1149 (referred to from this point on as Ad5-SHP-1-shRNA), produced in the Viral Vector Core Laboratory at Baylor College of Medicine, was tested for its ability to knock-down endogenous SHP-1 protein in D2SC/1 cells, a murine dendritic-like cell line. […] A titration of Ad5-SHP-1 shRNA viral particles was performed and SHP-1 protein expression was determined by western blot (FIG. 3). […] This dose was chosen for subsequent studies using mouse bone marrow derived dendritic cells (BMDCs).
FIG. 3 describes the knock-down of endogenous SHP-1 using high titer Ad5-SHP-1 shRNA. SHP-1 protein expression was measured in D2SC/1 cells following infection with Ad5-SHP-1 at varying doses as shown. Protein levels were analyzed by western blot with a SHP-1 specific antibody. As controls, SHP-1 expression is shown for uninfected cells and those infected with the Ad5-scrambled shRNA. The blot was also probed with a calnexin specific antibody as a loading control. Densitometry analysis of the western is shown below as a percentage of SHP-1 expression level relative to cells infected with Ad5-scrambled shRNA.

Akt = test: LPS stimulated Akt signaling in BMDCs, western blot; type: cell-based, C57BL/6 mice; details: CD11c positive BMDCs
Protocol: DC survival has been linked with activation of Akt/protein kinase B (PKB) family proteins, major effectors of phosphatidylinositol 3-kinase (PI3K) family members. LPS stimulated Akt signaling BMDCs was examined to determine if SHP-1 mediated survival might be working through this mechanism. MACS sorted for CD11c positive BMDCs were infected with either Ad5-SHP-1-shRNA or Ad5-scrambled-shRNA or left untreated. Cells (10^7) per group were treated with 1 μg/mL LPS for the times indicated or left untreated. Lysates were analyzed by western blot for phosphorylated Akt. […] This observation provides a mechanism for the increased survival seen when SHP-1 signaling was inhibited, in certain embodiments (FIG. 8). LPS stimulation also appears to enhance the total level of SHP-1 protein in DCs as shown by the SHP-1 blot for cells treated with Ad5-scrambled-shRNA.

TRAMP C2 tumors = test: DC vaccination of mice bearing ectopic TRAMP C2 tumors; type: in vivo, C57BL/6 mice; details: by viral transduction, pooled across all peptide treatments, vs untreated mice
Protocol: BMDCs were prepared as described above, transduced with either Ad5-SHP-1-shRNA or the control Ad5-scrambled-shRNA at 40,000 viral particles/cell, and pulsed with one of the six peptides listed in Table 1 (OVA, an irrelevant epitope to TRAMP 2 tumors, served as a negative control peptide) or a lysate of TRAMP C2 cells as a positive control antigen. 6-8 week C57BL/6 mice, bearing TRAMP C2 tumors (7×10^6 cells injected s.c. on the dorsal flank three days prior to vaccination), were given a single i.p. vaccination with 2×10^6 treated DCs or left untreated. Tumors were measured (length and width using calipers) every 2-4 days until termination of the study and tumor volume was estimated using the formula: Tumor volume (mm3)=x^2y×0.5236, where x is the smaller tumor dimension, and y is the larger tumor dimension. A-G) TRAMP tumor growth curves for vaccines loaded with the indicated peptides. Error bars represent the standard error of the mean of 5 mice vaccinated in each treatment. […] H-I) ANOVA analysis of peptide function and SHP-1 function. Data represent the averages 10 mice per peptide treatment and 5 mice in the no treatment control group for H) and 35 mice per viral transduction treatment and 5 mice in the no treatment control group for I). The green diamonds represent the mean and 95% confidence interval for each group from the ANOVA. The black line is the mean of means for the study and red symbols indicate significant differences (p<0.05 by Tukey-Kramer HSD multiple comparisons test).
To determine if there was a significant difference between the various peptides used in these DC vaccinations, mice were pooled across viral treatments (Ad5-SHP-1 shRNA or Ad5-scrambled-shRNA) employing the same peptide. An ANOVA for differences in mean tumor volume at day 48 post-vaccination (the time at which the majority of the vaccinated tumor growth curves change slope) and Tukey-Kramer HSD multiple comparisons test.
Next experiments were conducted to determine if vaccines transduced with Ad5-SHP-1-shRNA inhibited tumor growth compared to transduction with Ad5-scrambled-shRNA or no vaccine treatment, irrespective of what peptide was used in the vaccine.

B16 tumors = test: DC vaccination of mice bearing ectopic B16 melanoma tumors; type: in vivo, C57BL/6 mice
Protocol: The B16 melanoma, which is both aggressive and poorly immunogenic, expresses tyrosinase related protein-2 (Trp-2) of which peptide, […] (SEQ ID NO:13), is recognized by CD8^+ T cells in the context of H-2K^b. B16 represents a much more difficult tumor to treat than TRAMP and is considered the “gold standard” for ectopic tumor models in the C57BL/6 background. BMDCs were prepared as described above, pulsed with the Trp-2 and then transduced with either Ad5-SHP-1 shRNA or the control Ad5-scrambled-shRNA virus at 40,000 viral particles/cell. 6-8 week C57BL/6 mice, bearing B16 tumors (5×10^5 cells injected s.c. on the dorsal flank three days prior to vaccination), were given a single i.p. vaccination with 2×10^6 treated DCs or left untreated. Tumors were measured every 2-4 days until termination of the experiment and tumor volume was calculated as described above. […] To determine if this difference was statistically significant, ANOVA and Tukey-Kramer HSD multiple comparisons test were performed.
BMDCs were prepared as described above, pulsed with the Trp-2 and then transduced with either Ad5-SHP-1 shRNA or the control Ad5-scrambled-shRNA virus at 40,000 viral particles/cell. […] Tumors were measured every 2-4 days until termination of the experiment and tumor volume was calculated as described above. […]

CACCGGAGCATGACACAGCAGAATACGAATATTCTGCTGTGTCATGCTCC (chemistry not given here) [Ad5-SHP-1-shRNA]
decrease in endogenous SHP-1 protein (endogenous SHP-1 protein): 95%
steady state expression of total Akt protein (Akt): enhanced the steady state expression of total Akt protein
LPS mediated Akt phosphorylation (Akt; 1 μg/mL LPS): enhanced LPS mediated Akt phosphorylation
TRAMP C2 tumor volume (ANOVA) (TRAMP C2 tumors): significantly lower tumor volumes
B16 mean tumor volume (growth curves) (B16 tumors; Trp-2 pulsed DCs, 40,000 viral particles/cell, single i.p. 2×10^6 DCs, beginning at day 18): markedly smaller mean tumor volumes
B16 mean tumor volume (ANOVA) (B16 tumors; Trp-2 pulsed DCs, compared with either control group): significantly lower mean tumor volume
